Kd data for 13 molecules are collected here from ChEMBL document CHEMBL3991601, “The target landscape of clinical kinase drugs” (Science, 2017).

The target in one assay is DNA topoisomerase 2-beta (Homo sapiens, UniProt Q02880).
The target of assay [1] is RAC-alpha serine/threonine-protein kinase (Homo sapiens, UniProt P31749).
Assay [2] concerns the target T1, Serine/threonine-protein kinase TAO2 (Homo sapiens, UniProt Q9UL54).
T1 sequence (Q9UL54 whole entry): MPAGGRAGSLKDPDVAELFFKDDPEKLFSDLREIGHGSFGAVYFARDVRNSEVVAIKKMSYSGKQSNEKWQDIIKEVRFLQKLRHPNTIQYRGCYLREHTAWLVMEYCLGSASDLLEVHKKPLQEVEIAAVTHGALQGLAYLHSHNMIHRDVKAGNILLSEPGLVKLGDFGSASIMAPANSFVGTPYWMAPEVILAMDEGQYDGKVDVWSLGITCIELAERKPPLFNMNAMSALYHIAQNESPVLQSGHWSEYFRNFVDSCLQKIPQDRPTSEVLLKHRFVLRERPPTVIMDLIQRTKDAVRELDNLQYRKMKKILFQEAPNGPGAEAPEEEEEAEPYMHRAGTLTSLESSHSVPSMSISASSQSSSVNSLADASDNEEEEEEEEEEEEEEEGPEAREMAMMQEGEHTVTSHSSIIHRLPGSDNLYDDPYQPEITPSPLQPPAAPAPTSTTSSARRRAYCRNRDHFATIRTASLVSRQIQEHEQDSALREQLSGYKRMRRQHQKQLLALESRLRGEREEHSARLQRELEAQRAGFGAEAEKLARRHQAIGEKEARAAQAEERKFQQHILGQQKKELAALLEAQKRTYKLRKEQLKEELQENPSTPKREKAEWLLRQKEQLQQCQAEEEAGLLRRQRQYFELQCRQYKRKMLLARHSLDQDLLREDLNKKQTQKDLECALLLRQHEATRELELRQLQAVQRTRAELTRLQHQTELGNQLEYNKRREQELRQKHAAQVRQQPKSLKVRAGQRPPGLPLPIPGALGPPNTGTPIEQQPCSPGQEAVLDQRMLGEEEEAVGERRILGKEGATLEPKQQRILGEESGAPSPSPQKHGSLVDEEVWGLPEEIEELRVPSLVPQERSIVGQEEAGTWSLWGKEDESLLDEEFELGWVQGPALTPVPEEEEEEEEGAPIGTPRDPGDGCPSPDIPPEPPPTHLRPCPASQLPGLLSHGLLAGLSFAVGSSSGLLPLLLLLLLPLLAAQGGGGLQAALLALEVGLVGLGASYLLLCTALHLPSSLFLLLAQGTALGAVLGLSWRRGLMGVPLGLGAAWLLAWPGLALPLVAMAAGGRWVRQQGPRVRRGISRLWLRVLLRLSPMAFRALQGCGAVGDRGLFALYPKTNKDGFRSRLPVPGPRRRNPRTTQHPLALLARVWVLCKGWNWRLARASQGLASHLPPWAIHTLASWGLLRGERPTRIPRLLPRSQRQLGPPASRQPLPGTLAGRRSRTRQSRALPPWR

The target of assay [3] is Glycogen synthase kinase-3 beta (Homo sapiens, UniProt P49841).
Assay [4] has as its target T2, Cysteine--tRNA ligase, cytoplasmic (Homo sapiens, UniProt P49589).
T2 sequence (P49589 whole entry): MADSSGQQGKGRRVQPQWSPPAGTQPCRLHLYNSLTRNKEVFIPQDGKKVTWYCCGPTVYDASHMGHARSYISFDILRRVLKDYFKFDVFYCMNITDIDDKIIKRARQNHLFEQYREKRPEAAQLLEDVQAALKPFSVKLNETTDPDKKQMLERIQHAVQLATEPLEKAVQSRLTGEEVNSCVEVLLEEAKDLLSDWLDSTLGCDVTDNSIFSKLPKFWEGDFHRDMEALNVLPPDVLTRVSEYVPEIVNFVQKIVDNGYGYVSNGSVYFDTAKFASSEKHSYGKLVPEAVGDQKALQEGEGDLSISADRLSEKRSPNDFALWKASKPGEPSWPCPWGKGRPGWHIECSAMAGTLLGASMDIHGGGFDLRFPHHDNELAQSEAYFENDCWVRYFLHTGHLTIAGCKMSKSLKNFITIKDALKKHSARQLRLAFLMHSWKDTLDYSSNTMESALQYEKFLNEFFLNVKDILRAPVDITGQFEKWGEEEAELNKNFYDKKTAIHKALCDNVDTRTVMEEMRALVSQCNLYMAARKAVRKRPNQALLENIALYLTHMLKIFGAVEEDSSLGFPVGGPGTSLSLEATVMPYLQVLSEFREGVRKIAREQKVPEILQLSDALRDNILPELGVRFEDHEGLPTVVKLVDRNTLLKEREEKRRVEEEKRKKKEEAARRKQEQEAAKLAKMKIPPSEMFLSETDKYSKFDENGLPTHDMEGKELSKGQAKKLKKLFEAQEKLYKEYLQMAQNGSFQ

In assay [5] the target is cAMP-dependent protein kinase type II-alpha regulatory subunit (Homo sapiens, UniProt P13861).
Assay [6] has as its target Receptor-interacting serine/threonine-protein kinase 2 (Homo sapiens, UniProt O43353).
For a further assay, the target named is Actin-related protein 2 (Homo sapiens, UniProt P61160).
In assay [7] the target is T3, Serine/threonine-protein kinase Nek3 (Homo sapiens, UniProt P51956).
T3 sequence (P51956 whole entry): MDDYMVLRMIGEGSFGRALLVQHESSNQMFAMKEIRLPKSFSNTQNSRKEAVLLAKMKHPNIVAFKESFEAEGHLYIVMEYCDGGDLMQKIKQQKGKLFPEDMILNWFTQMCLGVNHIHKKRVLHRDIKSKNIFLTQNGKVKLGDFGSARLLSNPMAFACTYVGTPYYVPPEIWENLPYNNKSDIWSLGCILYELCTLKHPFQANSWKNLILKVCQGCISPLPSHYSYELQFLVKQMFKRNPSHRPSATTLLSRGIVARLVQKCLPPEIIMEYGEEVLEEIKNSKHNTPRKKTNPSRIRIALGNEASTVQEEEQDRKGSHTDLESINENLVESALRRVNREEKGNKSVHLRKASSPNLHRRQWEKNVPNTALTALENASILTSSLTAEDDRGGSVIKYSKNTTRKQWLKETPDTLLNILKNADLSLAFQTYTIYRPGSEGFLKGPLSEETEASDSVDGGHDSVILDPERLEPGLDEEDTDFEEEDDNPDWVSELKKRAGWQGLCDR

In assay [8] the target is Dual specificity mitogen-activated protein kinase kinase 2 (Homo sapiens, UniProt P36507).

SMILES strings stand for the structures. Calls of active or inactive are those of the source. Some results are limits rather than exact numbers.
Note: in the data inactive means no Kd found up to 30 µM.

Chain of Glycogen synthase kinase-3 beta (P49841 whole entry): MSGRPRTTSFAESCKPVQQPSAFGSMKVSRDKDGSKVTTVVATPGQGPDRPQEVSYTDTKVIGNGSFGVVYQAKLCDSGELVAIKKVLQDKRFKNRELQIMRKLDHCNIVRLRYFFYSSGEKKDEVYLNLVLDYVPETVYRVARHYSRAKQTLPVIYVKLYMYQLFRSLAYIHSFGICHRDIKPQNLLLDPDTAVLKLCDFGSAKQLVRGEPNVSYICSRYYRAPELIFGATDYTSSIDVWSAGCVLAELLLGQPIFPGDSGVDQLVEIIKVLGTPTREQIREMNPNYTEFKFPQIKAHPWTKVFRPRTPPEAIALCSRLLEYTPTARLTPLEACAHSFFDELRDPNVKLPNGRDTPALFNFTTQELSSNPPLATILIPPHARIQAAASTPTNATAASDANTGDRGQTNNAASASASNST
Chain of Receptor-interacting serine/threonine-protein kinase 2 (O43353 whole entry): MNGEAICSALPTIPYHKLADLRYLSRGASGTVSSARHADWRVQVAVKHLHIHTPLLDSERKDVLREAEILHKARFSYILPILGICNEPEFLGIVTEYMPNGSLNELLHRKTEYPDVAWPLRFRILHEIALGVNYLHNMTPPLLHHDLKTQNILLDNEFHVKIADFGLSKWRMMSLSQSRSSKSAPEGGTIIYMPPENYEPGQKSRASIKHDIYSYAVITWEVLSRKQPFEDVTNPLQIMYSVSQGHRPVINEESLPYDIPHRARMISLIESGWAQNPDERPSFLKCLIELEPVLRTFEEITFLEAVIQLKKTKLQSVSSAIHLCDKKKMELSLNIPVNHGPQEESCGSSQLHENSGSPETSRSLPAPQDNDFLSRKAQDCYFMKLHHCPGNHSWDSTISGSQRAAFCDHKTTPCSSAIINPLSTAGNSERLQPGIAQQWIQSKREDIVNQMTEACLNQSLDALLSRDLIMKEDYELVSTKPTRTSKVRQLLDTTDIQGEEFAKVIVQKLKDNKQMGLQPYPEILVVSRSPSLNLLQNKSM
Chain of cAMP-dependent protein kinase type II-alpha regulatory subunit (P13861 whole entry): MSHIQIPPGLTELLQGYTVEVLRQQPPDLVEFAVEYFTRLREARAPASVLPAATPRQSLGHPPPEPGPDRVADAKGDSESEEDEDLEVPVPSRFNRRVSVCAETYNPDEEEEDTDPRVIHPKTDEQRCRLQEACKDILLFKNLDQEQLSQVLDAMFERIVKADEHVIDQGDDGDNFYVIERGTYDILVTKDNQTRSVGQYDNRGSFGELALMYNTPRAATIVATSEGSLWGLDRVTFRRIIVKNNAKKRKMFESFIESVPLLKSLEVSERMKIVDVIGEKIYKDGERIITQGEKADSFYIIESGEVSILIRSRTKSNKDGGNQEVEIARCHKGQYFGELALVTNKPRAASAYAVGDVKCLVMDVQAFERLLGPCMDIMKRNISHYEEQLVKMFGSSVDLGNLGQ
Chain of Dual specificity mitogen-activated protein kinase kinase 2 (P36507 whole entry): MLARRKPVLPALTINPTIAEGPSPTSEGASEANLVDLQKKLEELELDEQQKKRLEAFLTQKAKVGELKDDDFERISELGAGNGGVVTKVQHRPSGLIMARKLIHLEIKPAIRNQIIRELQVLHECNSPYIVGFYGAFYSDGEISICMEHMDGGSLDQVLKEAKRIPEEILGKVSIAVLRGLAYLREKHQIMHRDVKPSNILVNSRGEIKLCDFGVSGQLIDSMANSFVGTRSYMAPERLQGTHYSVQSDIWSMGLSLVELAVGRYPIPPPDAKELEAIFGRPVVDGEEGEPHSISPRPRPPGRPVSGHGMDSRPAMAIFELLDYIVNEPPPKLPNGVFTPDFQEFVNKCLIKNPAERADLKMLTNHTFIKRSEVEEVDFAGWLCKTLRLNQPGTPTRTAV
Chain of RAC-alpha serine/threonine-protein kinase (P31749 whole entry): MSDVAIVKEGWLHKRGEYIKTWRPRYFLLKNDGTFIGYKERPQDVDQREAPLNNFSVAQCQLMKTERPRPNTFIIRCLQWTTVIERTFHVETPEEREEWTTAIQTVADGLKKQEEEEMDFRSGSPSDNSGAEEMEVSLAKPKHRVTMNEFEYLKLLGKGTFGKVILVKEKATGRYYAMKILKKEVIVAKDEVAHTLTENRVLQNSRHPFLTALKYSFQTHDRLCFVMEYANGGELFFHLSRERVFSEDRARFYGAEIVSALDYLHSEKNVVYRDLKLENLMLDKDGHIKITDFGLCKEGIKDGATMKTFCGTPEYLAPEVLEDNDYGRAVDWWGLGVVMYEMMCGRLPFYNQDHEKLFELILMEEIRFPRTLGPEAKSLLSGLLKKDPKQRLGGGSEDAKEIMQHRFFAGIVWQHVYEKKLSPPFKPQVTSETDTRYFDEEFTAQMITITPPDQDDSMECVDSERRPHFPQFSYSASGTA
Chain of DNA topoisomerase 2-beta (Q02880 whole entry): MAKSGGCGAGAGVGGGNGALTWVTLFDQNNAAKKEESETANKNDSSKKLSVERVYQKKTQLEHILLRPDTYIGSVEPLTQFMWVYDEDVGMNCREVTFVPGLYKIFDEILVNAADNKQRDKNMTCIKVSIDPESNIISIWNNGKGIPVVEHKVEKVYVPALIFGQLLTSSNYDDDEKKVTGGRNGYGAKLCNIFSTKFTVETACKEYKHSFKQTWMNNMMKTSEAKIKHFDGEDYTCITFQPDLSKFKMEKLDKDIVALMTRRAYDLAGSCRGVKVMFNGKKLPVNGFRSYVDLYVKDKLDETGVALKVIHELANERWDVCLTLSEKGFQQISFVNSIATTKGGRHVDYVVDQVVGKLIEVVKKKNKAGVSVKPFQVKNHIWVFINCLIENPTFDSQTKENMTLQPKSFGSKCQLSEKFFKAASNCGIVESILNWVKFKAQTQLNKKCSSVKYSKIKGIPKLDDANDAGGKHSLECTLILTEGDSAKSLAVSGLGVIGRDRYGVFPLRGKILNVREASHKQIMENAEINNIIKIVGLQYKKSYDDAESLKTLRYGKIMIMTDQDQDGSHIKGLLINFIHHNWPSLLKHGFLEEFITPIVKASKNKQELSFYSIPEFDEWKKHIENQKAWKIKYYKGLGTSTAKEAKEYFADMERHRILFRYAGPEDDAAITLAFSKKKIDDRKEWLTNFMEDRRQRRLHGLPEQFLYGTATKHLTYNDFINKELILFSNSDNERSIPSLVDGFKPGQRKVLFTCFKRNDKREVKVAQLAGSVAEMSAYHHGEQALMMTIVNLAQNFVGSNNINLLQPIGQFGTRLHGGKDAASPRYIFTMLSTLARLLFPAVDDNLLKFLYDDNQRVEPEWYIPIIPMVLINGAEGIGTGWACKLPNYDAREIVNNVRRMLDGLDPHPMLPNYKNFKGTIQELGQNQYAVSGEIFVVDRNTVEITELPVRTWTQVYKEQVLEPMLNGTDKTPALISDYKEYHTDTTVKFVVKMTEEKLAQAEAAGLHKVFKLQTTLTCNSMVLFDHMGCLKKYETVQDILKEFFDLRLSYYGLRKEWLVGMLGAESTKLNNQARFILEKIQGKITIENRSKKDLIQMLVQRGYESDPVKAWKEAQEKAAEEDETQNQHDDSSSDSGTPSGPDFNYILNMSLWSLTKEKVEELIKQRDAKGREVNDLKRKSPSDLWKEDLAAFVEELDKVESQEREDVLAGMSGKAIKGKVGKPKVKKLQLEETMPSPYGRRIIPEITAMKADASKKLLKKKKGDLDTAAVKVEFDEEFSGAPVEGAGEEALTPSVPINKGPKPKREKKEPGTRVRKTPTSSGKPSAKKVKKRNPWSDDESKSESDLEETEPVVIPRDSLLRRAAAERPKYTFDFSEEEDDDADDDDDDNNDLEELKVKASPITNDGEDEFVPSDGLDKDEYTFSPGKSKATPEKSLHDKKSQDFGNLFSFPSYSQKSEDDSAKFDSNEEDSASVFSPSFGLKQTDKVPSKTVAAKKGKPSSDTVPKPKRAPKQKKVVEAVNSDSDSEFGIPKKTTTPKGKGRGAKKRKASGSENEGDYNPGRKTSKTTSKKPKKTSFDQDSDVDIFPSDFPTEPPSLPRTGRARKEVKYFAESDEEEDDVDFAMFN

On to `CCNC(=O)C#Cc1ccc2c(c1)NC(=O)/C2=C(\Nc1ccc(CN(C)C)cc1)c1ccccc1`, for which the Kd (at DNA topoisomerase 2-beta; in [1]; in [2]; in [3]; in [4]; in assay [5]) was > 30 µM (inactive) throughout. For the same molecule, the Kd (in assay [6]; at Actin-related protein 2; in assay [7]) was > 30 µM (inactive) each time.
`COc1cc(Nc2ncc3c(n2)-c2ccc(Cl)cc2C(c2c(F)cccc2OC)=NC3)ccc1C(=O)O` [ALISERTIB]: the Kd (on DNA topoisomerase 2-beta; in assay [2]; in [4]; in assay [5]; in assay [6]; on Actin-related protein 2) was > 30 µM (inactive) each time. In addition, the Kd in [7] is > 30 µM (inactive).
On to `CNC(=O)c1ccccc1Sc1ccc2c(/C=C/c3ccccn3)n[nH]c2c1` [AXITINIB], for which the Kd (at DNA topoisomerase 2-beta; in assay [4]; in [5]; at Actin-related protein 2) was > 30 µM (inactive) each time.
Regarding `CC(C)(C)c1nc(-c2cccc(NS(=O)(=O)c3c(F)cccc3F)c2F)c(-c2ccnc(N)n2)s1` [DABRAFENIB], the Kd was > 30 µM (inactive) at DNA topoisomerase 2-beta; > 30 µM (inactive) in assay [2]; > 30 µM (inactive) in assay [4]; > 30 µM (inactive) in assay [5]; 0.106 µM (active) in [6]; > 30 µM (inactive) on Actin-related protein 2. Moreover, the Kd in assay [7] is > 30 µM (inactive).
`Cn1cc(C2=C(c3cn(C4CCN(Cc5ccccn5)CC4)c4ccccc34)C(=O)NC2=O)c2ccccc21` [ENZASTAURIN]: the Kd (at DNA topoisomerase 2-beta; in [4]; in [5]; at Actin-related protein 2) was > 30 µM (inactive) in each case.
`C[C@@H](Oc1cc(-n2cnc3ccc(CN4CCN(C)CC4)cc32)sc1C(N)=O)c1ccccc1C(F)(F)F` [GSK-461364]: the Kd (on DNA topoisomerase 2-beta; in [4]; in [5]; at Actin-related protein 2) was > 30 µM (inactive) each time.
With `CC(=O)NCC(=O)N1[C@@H]2CC[C@H]1c1ccc(Nc3ncc(C(F)(F)F)c(NC4CCC4)n3)cc12` [PF-03814735], the Kd on DNA topoisomerase 2-beta was > 30 µM (inactive); in [2], 2.05 µM (active); in assay [4], > 30 µM (inactive); in [5] it was > 30 µM (inactive); in assay [6], > 30 µM (inactive); on Actin-related protein 2, > 30 µM (inactive). In [7], the Kd is > 30 µM (inactive).
For `CO[C@H]1C[C@@H]2CC[C@@H](C)[C@@](O)(O2)C(=O)C(=O)N2CCCC[C@H]2C(=O)O[C@H]([C@H](C)C[C@@H]2CC[C@@H](OP(C)(C)=O)[C@H](OC)C2)CC(=O)[C@H](C)/C=C(\C)[C@@H](O)[C@@H](OC)C(=O)[C@H](C)C[C@H](C)/C=C/C=C/C=C/1C` [RIDAFOROLIMUS], the Kd (on DNA topoisomerase 2-beta; in assay [1]; in assay [2]; in assay [8]; in assay [3]; in assay [5]) was > 30 µM (inactive) each time. Also, the Kd (in assay [6]; at Actin-related protein 2; in assay [7]) was > 30 µM (inactive) each time.
Turning to `O=C(NOCCO)c1cc(CN2OCCCC2=O)c(F)c(F)c1Nc1ccc(I)cc1F` [RO-4987655], the Kd (at DNA topoisomerase 2-beta; in assay [4]; in assay [5]; on Actin-related protein 2) was > 30 µM (inactive) throughout.
Take `N#CC[C@H](C1CCCC1)n1cc(-c2ncnc3[nH]ccc23)cn1` [RUXOLITINIB]: the Kd is > 30 µM (inactive) at DNA topoisomerase 2-beta; > 30 µM (inactive) in assay [4]; > 30 µM (inactive) in [5]; > 30 µM (inactive) at Actin-related protein 2; 29.9 µM (active) in assay [7].
On to `CN1CCN(CCOc2cc(OC3CCOCC3)c3c(Nc4c(Cl)ccc5c4OCO5)ncnc3c2)CC1` [SARACATINIB], for which the Kd (on DNA topoisomerase 2-beta; in [1]; in assay [2]; in assay [8]; in [3]; in assay [5]) was > 30 µM (inactive) throughout. Further, the Kd in [6] was 0.002 µM (active); on Actin-related protein 2 it was > 30 µM (inactive); in assay [7], > 30 µM (inactive).
In the case of `Cn1cc(-c2cnn3c(N)c(Br)c([C@@H]4CCCNC4)nc23)cn1` [SCH-900776], the Kd at DNA topoisomerase 2-beta was > 30 µM (inactive); in assay [1], > 30 µM (inactive); in [2], > 30 µM (inactive); in assay [8] it was 2.36 µM (active); in [3] it was > 30 µM (inactive); in assay [5], > 30 µM (inactive). Further, the Kd (in assay [6]; on Actin-related protein 2; in [7]) was > 30 µM (inactive) each time.
Take `CCS(=O)(=O)c1cccc(-c2cc(C(=O)NC3CCN(C)CC3)c(C)c3[nH]c4ncc(C)cc4c23)c1` [TAK-901]: the Kd at DNA topoisomerase 2-beta is > 30 µM (inactive); in [1], > 30 µM (inactive); in [2] it was > 30 µM (inactive); in assay [8] it was 3.95 µM (active); in assay [3], 6.17 µM (active); in [5], > 30 µM (inactive). For the same molecule, the Kd (in assay [6]; on Actin-related protein 2; in assay [7]) was > 30 µM (inactive) in each case.

Usually Kd stands for the constant that tells how readily two partners part at equilibrium.
